Laboratory results: patent US20240180221A1, “METHODS AND COMPOSITIONS FOR IMPROVED TASTE QUALITY” (ALMENDRA PTE. LTD., priority 2021, published 2024)

System: human taste testers
Assay: Tasting of amino acid solutions in citric acid buffer for bitterness, with and without taste modulator
Type: in vivo
Conditions: for bitterness intensity: 7.5 mM solution in pH 3.2 CAB, 0-15 intensity scale; for Bitter Taste Threshold in CAB: pH 3.2 Citric Acid Buffer, serial dilutions from 30 mM to 1.88 mM tasted in ascending order

Row | Compound | bitterness intensity | Bitter Taste Threshold in CAB | bitterness onset and linger (in pH 3.2 CAB)
1 | N[C@@H](Cc1ccccc1)C(=O)O [L-Phe, L-Phenylalanine] | 5 | ca. 3 mM | –
2 | N[C@@H](Cc1c[nH]c2ccccc12)C(=O)O [L-Trp, L-Tryptophan] | 5 | ca. 3 mM | noticeably slow in onset and quite lingering
